According to patent US20170252298A1, “Performance-Enhancing Nasal Irrigation” (Backed-by-Science, Inc., priority 2014, published 2017):
Several values for one entry are separate records, joined by “and”; a condition that tells them apart may be missing. Equal entries are not always repeated.

Test system: nasal cilia
Assay: nasal ciliary beat frequency (CBF), whole field analysis over time
Assay type: cell-based
Parameters: Mean CBF (WFA): unit: Hz
Description: The ATP concentration inside the cell is typically 1-10 millimolar (mM). We started with an ATP concentration of 1 mg/ml based on literature data and from testing done by Dr. James Palmer at University of Pennsylvania on ATP concentration for increasing nasal ciliary beat frequency. […] 1 mg/ml from the below charts=1 mg/ml=1 gram per liter=1/507 g/mol=2 mM. Most intracellular ATP concentrations in animals fall within the range of 0.5-10 mM. [table]

[1] = Plate 1, elapsed 0:00:00, treatment of plate not stated
[2] = Plate 2, elapsed 0:00:00, ATP 1 mg/ml
[3] = Plate 2, elapsed 0:00:10, ATP 1 mg/ml
[4] = Plate 2, elapsed 0:00:30, ATP 1 mg/ml
[5] = Plate 2, elapsed 0:00:40, ATP 1 mg/ml
[6] = Plate 2, elapsed 0:00:50, ATP 1 mg/ml
[7] = Plate 2, elapsed 0:01:00, ATP 1 mg/ml
[8] = Plate 2, elapsed 0:01:10, ATP 1 mg/ml
[9] = Plate 2, elapsed 0:01:20, ATP 1 mg/ml
[10] = Plate 2, elapsed 0:01:30, ATP 1 mg/ml
[11] = Plate 2, elapsed 0:01:40, ATP 1 mg/ml
[12] = Plate 2, elapsed 0:01:50, ATP 1 mg/ml
[13] = Plate 2, elapsed 0:02:00, ATP 1 mg/ml
[14] = Plate 2, elapsed 0:02:10, ATP 1 mg/ml
[15] = Plate 2, elapsed 0:02:20, ATP 1 mg/ml
[16] = Plate 2, elapsed 0:02:30, ATP 1 mg/ml
[17] = Plate 2, elapsed 0:02:40, ATP 1 mg/ml
[18] = Plate 2, elapsed 0:02:50, ATP 1 mg/ml
[19] = Plate 2, elapsed 0:03:00, ATP 1 mg/ml
[20] = Plate 2, elapsed 0:03:10, ATP 1 mg/ml
[21] = Plate 2, elapsed 0:03:20, ATP 1 mg/ml
[22] = Plate 2, elapsed 0:03:30, ATP 1 mg/ml
[23] = Plate 2, elapsed 0:03:40, ATP 1 mg/ml
[24] = Plate 2, elapsed 0:03:50, ATP 1 mg/ml
[25] = Plate 2, elapsed 0:04:00, ATP 1 mg/ml
[26] = Plate 2, elapsed 0:04:10, ATP 1 mg/ml
[27] = Plate 2, elapsed 0:04:20, ATP 1 mg/ml
[28] = Plate 2, elapsed 0:04:30, ATP 1 mg/ml
[29] = Plate 2, elapsed 0:04:40, ATP 1 mg/ml
[30] = Plate 2, elapsed 0:04:50, ATP 1 mg/ml
[31] = Plate 2, elapsed 0:05:00, ATP 1 mg/ml
[32] = Plate 2, elapsed 0:05:10, ATP 1 mg/ml
[33] = Plate 2, elapsed 0:05:20, ATP 1 mg/ml
[34] = Plate 2, elapsed 0:05:30, ATP 1 mg/ml
[35] = Plate 2, elapsed 0:05:40, ATP 1 mg/ml
[36] = Plate 2, elapsed 0:05:50, ATP 1 mg/ml
[37] = Plate 2, elapsed 0:06:00, ATP 1 mg/ml
[38] = Plate 2, elapsed 0:06:10, ATP 1 mg/ml
[39] = Plate 2, elapsed 0:06:20, ATP 1 mg/ml
[40] = Plate 2, elapsed 0:06:30, ATP 1 mg/ml
[41] = Plate 2, elapsed 0:06:40, ATP 1 mg/ml
[42] = Plate 2, elapsed 0:06:50, ATP 1 mg/ml
[43] = Plate 2, elapsed 0:07:00, ATP 1 mg/ml
[44] = Plate 2, elapsed 0:07:10, ATP 1 mg/ml
[45] = Plate 2, elapsed 0:07:20, ATP 1 mg/ml
[46] = Plate 2, elapsed 0:07:30, ATP 1 mg/ml
[47] = Plate 2, elapsed 0:07:40, ATP 1 mg/ml
[48] = Plate 2, elapsed 0:07:50, ATP 1 mg/ml
[49] = Plate 2, elapsed 0:08:00, ATP 1 mg/ml

How did the “Active Area” value [1] turn out when `Nc1ncnc2c1ncn2[C@@H]1O[C@H](COP(=O)(O)OP(=O)(O)OP(=O)(O)O)[C@@H](O)[C@H]1O` [ATP, adenosine triphosphate] was run?
The value was 82.86% and 60.42% and 53.54%.

And the “Mean CBF (WFA)” value [1]?
The value was 6.75 and 6.14 and 5.59.

What about the “Active Area” value [2] of the same compound?
The value was 22.19%.

What about the “Mean CBF (WFA)” value [2] of the same compound?
The value was 8.06.

And the “Active Area” value [3]?
The value was 44.1%.

What about the “Mean CBF (WFA)” value [3] of the same compound?
Its value is 7.41.

And the “Active Area” value [4]?
The value was 49.49%.

And the “Mean CBF (WFA)” value [4]?
Its value is 7.42.

And the “Active Area” value [5]?
The value was 49.6%.

And the “Mean CBF (WFA)” value [5]?
Its value is 7.5.

And the “Active Area” value [6]?
Its value is 48.61%.

And the “Mean CBF (WFA)” value [6]?
The value was 7.55.

And the “Active Area” value [7]?
Its value is 42.47%.

What about the “Mean CBF (WFA)” value [7] of the same compound?
The value was 7.66.

And the “Active Area” value [8]?
Its value is 43.64%.

What about the “Mean CBF (WFA)” value [8] of the same compound?
The value was 7.75.

And the “Active Area” value [9]?
Its value is 45.62%.

And the “Mean CBF (WFA)” value [9]?
The value was 7.82.

And the “Active Area” value [10]?
The value was 36.91%.

And the “Mean CBF (WFA)” value [10]?
The value was 7.92.

What about the “Active Area” value [11] of the same compound?
The value was 40.43%.

What about the “Mean CBF (WFA)” value [11] of the same compound?
Its value is 7.99.

What about the “Active Area” value [12] of the same compound?
The value was 43.13%.

What about the “Mean CBF (WFA)” value [12] of the same compound?
The value was 7.95.

And the “Active Area” value [13]?
Its value is 41.96%.

What about the “Mean CBF (WFA)” value [13] of the same compound?
Its value is 8.01.

What about the “Active Area” value [14] of the same compound?
The value was 43.36%.

What about the “Mean CBF (WFA)” value [14] of the same compound?
Its value is 8.

And the “Active Area” value [15]?
The value was 42.03%.

And the “Mean CBF (WFA)” value [15]?
Its value is 8.03.

What about the “Active Area” value [16] of the same compound?
The value was 15.64%.

What about the “Mean CBF (WFA)” value [16] of the same compound?
The value was 7.96.

And the “Active Area” value [17]?
Its value is 37.46%.

What about the “Mean CBF (WFA)” value [17] of the same compound?
The value was 8.02.

And the “Active Area” value [18]?
The value was 40.07%.

And the “Mean CBF (WFA)” value [18]?
The value was 8.02.

What about the “Active Area” value [19] of the same compound?
Its value is 38.29%.

And the “Mean CBF (WFA)” value [19]?
Its value is 8.08.

And the “Active Area” value [20]?
The value was 38.85%.

And the “Mean CBF (WFA)” value [20]?
Its value is 8.1.

What about the “Active Area” value [21] of the same compound?
The value was 37.75%.

And the “Mean CBF (WFA)” value [21]?
Its value is 8.09.

And the “Active Area” value [22]?
The value was 36.48%.

What about the “Mean CBF (WFA)” value [22] of the same compound?
Its value is 8.07.

What about the “Active Area” value [23] of the same compound?
The value was 37.41%.

What about the “Mean CBF (WFA)” value [23] of the same compound?
Its value is 8.07.

What about the “Active Area” value [24] of the same compound?
Its value is 36.73%.

What about the “Mean CBF (WFA)” value [24] of the same compound?
Its value is 8.12.

What about the “Active Area” value [25] of the same compound?
The value was 37.22%.

What about the “Mean CBF (WFA)” value [25] of the same compound?
The value was 8.11.

What about the “Active Area” value [26] of the same compound?
Its value is 38.13%.

What about the “Mean CBF (WFA)” value [26] of the same compound?
The value was 8.09.

What about the “Active Area” value [27] of the same compound?
Its value is 36.96%.

And the “Mean CBF (WFA)” value [27]?
The value was 8.12.

What about the “Active Area” value [28] of the same compound?
The value was 36.02%.

And the “Mean CBF (WFA)” value [28]?
The value was 8.12.

What about the “Active Area” value [29] of the same compound?
Its value is 36.21%.

What about the “Mean CBF (WFA)” value [29] of the same compound?
Its value is 8.06.

What about the “Active Area” value [30] of the same compound?
The value was 34.77%.

What about the “Mean CBF (WFA)” value [30] of the same compound?
Its value is 8.05.

And the “Active Area” value [31]?
Its value is 37.11%.

What about the “Mean CBF (WFA)” value [31] of the same compound?
Its value is 8.12.

And the “Active Area” value [32]?
Its value is 34.86%.

And the “Mean CBF (WFA)” value [32]?
Its value is 8.08.

And the “Active Area” value [33]?
Its value is 35.53%.

And the “Mean CBF (WFA)” value [33]?
The value was 8.09.

And the “Active Area” value [34]?
Its value is 36.15%.

And the “Mean CBF (WFA)” value [34]?
The value was 8.22.

And the “Active Area” value [35]?
The value was 38.41%.

And the “Mean CBF (WFA)” value [35]?
The value was 8.15.

And the “Active Area” value [36]?
The value was 38.05%.

What about the “Mean CBF (WFA)” value [36] of the same compound?
The value was 8.13.

And the “Active Area” value [37]?
The value was 39.37%.

And the “Mean CBF (WFA)” value [37]?
The value was 8.17.

And the “Active Area” value [38]?
Its value is 39.15%.

What about the “Mean CBF (WFA)” value [38] of the same compound?
Its value is 8.14.

What about the “Active Area” value [39] of the same compound?
The value was 37.86%.

And the “Mean CBF (WFA)” value [39]?
The value was 8.15.

And the “Active Area” value [40]?
Its value is 31.72%.

And the “Mean CBF (WFA)” value [40]?
Its value is 8.11.

What about the “Active Area” value [41] of the same compound?
The value was 35.94%.

And the “Mean CBF (WFA)” value [41]?
The value was 8.21.

What about the “Active Area” value [42] of the same compound?
Its value is 36.95%.

And the “Mean CBF (WFA)” value [42]?
Its value is 8.22.

And the “Active Area” value [43]?
Its value is 28.86%.

And the “Mean CBF (WFA)” value [43]?
Its value is 8.23.

And the “Active Area” value [44]?
The value was 36.92%.

What about the “Mean CBF (WFA)” value [44] of the same compound?
Its value is 8.2.

What about the “Active Area” value [45] of the same compound?
Its value is 38.3%.

And the “Mean CBF (WFA)” value [45]?
Its value is 8.24.

And the “Active Area” value [46]?
Its value is 37.18%.

What about the “Mean CBF (WFA)” value [46] of the same compound?
Its value is 8.25.

And the “Active Area” value [47]?
Its value is 36.54%.

And the “Mean CBF (WFA)” value [47]?
Its value is 8.23.

What about the “Active Area” value [48] of the same compound?
Its value is 35.67%.

And the “Mean CBF (WFA)” value [48]?
Its value is 8.22.

And the “Active Area” value [49]?
The value was 37.37%.

What about the “Mean CBF (WFA)” value [49] of the same compound?
The value was 8.17.
